Experimental data from patent publication US8835445B2, “Dihydrofolate reductase inhibitors” (Trius Therapeutics, Inc., priority 2010, dated 2014).
In brackets after ≈: the same amount, converted by molar mass. Read-outs that look alike come from different tables or passages of the source.

Legend:
human DHFR = human DHFR (Homo sapiens (Human), UniProt P00374); assay: DHFR enzymatic inhibition (Ki), human DHFR; format: biochemical
S. aureus = assay: Antibacterial activity (MIC), whole-cell bacterial growth inhibition; format: cell-based, Staphylococcus aureus; conditions: Staphylococcus aureus
Source text: Antibacterial activity as measured by the minimal inhibitory concentrations (MIC) and minimal bactericidal concentrations of compounds are well known (see., e.g., National Committee for Clinical Laboratory Standards 2000 Performance standards for antimicrobial disk susceptibility tests: approved standard, 7th ed. M2-A7, vol. 20, no. 1, Committee for Clinical Laboratory Standards, Wayne, Pa.) In vitro testing for antibacterial activity may be accomplished through use of a whole-cell bacterial growth inhibition assay. For example, an […] assay identifies a substance that inhibits bacterial growth. Microtiter plates are prepared with serial dilutions of the test compound, adding to the preparation a given amount of growth substrate, and providing a preparation of bacteria. Inhibition of bacterial growth is determined, for example, by observing changes in optical densities of the bacterial cultures. Inhibition of bacterial growth is determined, for example, by comparing (in the presence and absence of a test compound) the rate of growth or the absolute growth of bacterial cells. Inhibition includes a reduction of one of the above measurements by at least 20%.

S. aurues DHFR = S. aurues DHFR (Staphylococcus aureus, UniProt P0A017); assay: biochemical; format: biochemical
[1] = S. aureus in 20% serum, read-out: MIC in μg/ml S. aureus in 20% serum
[2] = S. aureus, read-out: MIC in μg/ml S. aureus

human DHFR, sequence (P00374 whole entry): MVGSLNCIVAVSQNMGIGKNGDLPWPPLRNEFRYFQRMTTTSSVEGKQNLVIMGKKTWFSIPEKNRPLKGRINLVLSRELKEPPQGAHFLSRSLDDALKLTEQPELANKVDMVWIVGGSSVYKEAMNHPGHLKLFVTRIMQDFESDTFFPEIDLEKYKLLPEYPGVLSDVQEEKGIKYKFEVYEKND

Structure (SMILES)	Ki (human DHFR) [nM]	MIC (S. aureus; [1]) [µg/mL]	MIC (S. aureus; [2]) [µg/mL]	Ki (S. aurues DHFR; S. aureus DHFR) [nM]	Ki (S. aurues DHFR) [nM]
Cc1cc2c(N)nc(N)nc2cc1-c1cccc(CC#N)c1 [Compound 13, 2-(3-(2,4-diamino-6-methylquinazolin-7-yl)-phenyl)acetonitrile]	44	2 (≈ 6.91 µM)	0.5 (≈ 1.73 µM)	0.5	–
COc1ccc(OC)c(-c2ccc3c(N)nc(N)nc3c2)c1 [Compound 3, 7-(2,5-dimethoxyphenyl) quinazoline-2,4-diamine]	345	8 (≈ 27 µM)	4 (≈ 13.5 µM)	–	4
COC(=O)c1ccc2c(c1)nc(-c1nccs1)n2-c1ccc2c(N)nc(N)nc2c1 [Compound 32, methyl 1-(2,4-diaminoquinazolin-7-yl)-2-(thiazol-2-yl)-1H-benzo[d]imidazole-5-carboxylate]	53.1	2 (≈ 4.79 µM)	0.25 (≈ 0.599 µM)	0.021	–
Cc1cc2nc(-c3ccsc3)n(-c3ccc4c(N)nc(N)nc4c3)c2cc1C [Compound 21, 7-(5,6-dimethyl-2-(thiophen-3-yl)-1H-benzo[d]-imidazol-1-yl)quinazoline-2,4-diamine]	663	0.25 (≈ 0.647 µM)	≤ 0.125	0.012	–
Cc1cc2c(N)nc(N)nc2cc1-c1cnc2[nH]ccc2c1 [Compound 27, 6-methyl-7-(1H-pyrrolo[2,3-b]pyridin-5-yl)quin-azoline-2,4-diamine]	235	4 (≈ 13.8 µM)	4 (≈ 13.8 µM)	2.6	–
Nc1nc(N)c2ccc(-c3ccccc3N)cc2n1 [Compound 2, 7-(2-aminophenyl)quinazoline-2,4-diamine]	3920	8 (≈ 31.8 µM)	8 (≈ 31.8 µM)	15.3	–
Cc1cc2c(N)nc(N)nc2cc1-c1cccc(C#N)c1 [Compound 11, 3-(2,4-diamino-6-methylquinazolin-7-yl)benzonitrile]	55	2 (≈ 7.26 µM)	1 (≈ 3.63 µM)	1.2	–
Cc1cc2c(N)nc(N)nc2cc1-c1cc(N)cc(C#N)c1 [Compound 12, 3-amino-5-(2,4-diamino-6-methylquin-azolin-7-yl)benzonitrile]	44	1 (≈ 3.44 µM)	1 (≈ 3.44 µM)	0.65	–
Nc1ccc(-c2ccc3c(N)nc(N)nc3c2)cc1 [Compound 4, 7-(4-aminophenyl)quinazoline-2,4-diamine]	702	2 (≈ 7.96 µM)	4 (≈ 15.9 µM)	2.7	–
COc1cc2nc(-c3nccs3)n(-c3cc4nc(N)nc(N)c4cc3Cl)c2cc1OC [Compound 23, 6-chloro-7-(5,6-dimethoxy-2-(thiazol-2-yl)-1H-benzo[d]imidazol-1-yl)quinazo-line-2,4-diamine]	320	0.5 (≈ 1.1 µM)	≤ 0.125	0.011	–
Cc1cc2nc(-c3cccs3)n(-c3ccc4c(N)nc(N)nc4c3)c2cc1C [Compound 18, 7-(5,6-dimethyl-2-(thiophen-2-yl)-1H-benzo[d]-imidazol-1-yl)quinazoline-2,4-diamine]	1030	0.5 (≈ 1.29 µM)	≤ 0.125	0.005	–
COc1cc2nc(-c3nccs3)n(-c3cc4nc(N)nc(N)c4cc3C)c2cc1OC [Compound 24, 7-(5,6-dimethoxy-2-(thiazol-2-yl)-1H-benzo[d]-imidazol-1-yl)-6-methylquin-azoline-2,4-diamine]	170	≤ 0.5	≤ 0.5	0.019	–
COc1cc(-c2cc3nc(N)nc(N)c3cc2C)c(Cl)cn1 [Compound 28, 7-(5-chloro-2-methoxypyridin-4-yl)-6-methylquin-azoline-2,4-diamine]	56	1 (≈ 3.17 µM)	0.5 (≈ 1.58 µM)	0.72	–
COc1cc2nc(-c3nccs3)n(-c3ccc4c(N)nc(N)nc4c3)c2cc1OC [Compound 35]	854	0.25 (≈ 0.596 µM)	0.25 (≈ 0.596 µM)	0.16	–
